Laboratory results: patent US20040197268A1, “Method of imaging amyloid deposits using substituted rhodanine derivatives” (priority 1999, published 2004)
“And” between values parts separate entries of the source, which are not always exact repeats. Equal values may be shown once.

Tests used:
Aβ(1-40) [1] = target: T1, Aβ(1-40) (Homo sapiens, UniProt P05067); test: BASSR (Beta-Amyloid Self-Seeding Radioassay), inhibitors of self-seeded amyloid fibril growth; assay type: biochemical; settings: 30 μM soluble Aβ(1-40) + 125I-labeled Aβ(1-40), pH 7.5, 37° C., 3 to 5 hours, filtration
T1 construct: Soluble Aβ(1-40) peptide (Bachem, Torrance, Calif.); purchased Bachem, Torrance, Calif
Description: BASSR (Beta-Amyloid Self-Seeding Radioassay)
(§1) An assay for inhibitors of self-seeded amyloid fibril growth
Assay Buffer—50 mM sodium phosphate, pH 7.5, 100 mM NaCl, 0.02% NaN3, 1 M urea (filter and store at 4° C.)
Soluble Aβ(1-40) peptide (Bachem, Torrance, Calif.)—2.2 mg/mL in deionized H2O (stored in aliquots at −20° C., keep on ice when thawed) will self-seed after 1 week storage. Typically, the solution should be stored until no lag phase is seen in the assay.
^125I-labeled Aβ(1-40)—150K-350K cpm/μL in 100% acetonitrile—0.1% trifluoroacetic acid (TFA)—1% β-mercaptoethanol (aliquots stored at −20° C.). ^125I-labeled Aβ(1-40) can be made in accordance with the procedure set forth by H. Levine, III in Neurobiol. Aging, 16:755 (1995), which is hereby incorporated by reference, or this reagent may be purchased from Amersham, Arlington Heights, Ill.
Final assay conditions: 30 μM soluble Aβ(1-40) in deionized water in assay buffer+20-50K cpm ^125I-labeled Aβ(1-40) per assay. Compound to be tested is dissolved in dimethylsulfoxide (DMSO), typically 5-50 mM stock, such that the final concentration of DMSO is <1% v/v in the assay.
Assay: Reaction mixture for 50 assays (on ice) is comprised of 0.1-0.2 μL of […] ^125I-labeled Aβ(1-40)+1 μL of soluble Aβ(1-40)+13.5 μL assay buffer per assay. The following are the amounts of the components of the reaction mixture sufficient for 50 assay wells.
1) Prepare reaction mixture above by mixing components and storing on ice.
2) Pipet 14.5 μL of reaction mixture into each of 50 wells on a polypropylene U-bottom 96-well microtiter plate on ice (Costar 3794).
(§2) 3) Add 1.7 μL of diluted compound to be tested to each well in a column of eight, including solvent control. Serial 3-fold dilutions from 1 mM (100 μM final) in assay buffer−urea=7 dilutions+zero. Each 96-well plate can therefore accommodate 11 samples+1 Congo Red control (0.039-5 μM final in 2-fold steps).
4) Seal the plate with aluminum film (Beckman 538619) and incubate for 10 minutes on ice.
5) Raise the temperature to 37° C. and incubate for 3 to 5 hours (depending on the lot of the peptide).
6) Remove the aluminum film and add 200 μL/well of ice cold assay buffer with urea, collecting the radiolabeled fibrils by vacuum filtration through 0.2 μm pore size GVWP filters in 96-well plates (Millipore MAGV N22, Bedford, Mass.). Determine the radioactivity of the filters using standard methods well-known to those skilled in the art.

[2] = target: T2, beta amyloid peptide Aβ(1-40) (Homo sapiens, UniProt P05067); test: BAPA (Beta-Amyloid Peptide Aggregation), pH 6.0; assay type: biochemical; settings: Aβ(1-40) 33 μM, pH 6.0, 2 to 4 hours at room temperature, filtration
T2 construct: 0.5 mg/mL AP (140) peptide in 20% HFIP+0.1 μL/assay radioiodinated ^125I Aβ(1-40)
Description: BAPA (Beta-Amyloid Peptide Aggregation)
This assay is used to provide a measure of inhibition by a compound against the aggregation behavior of the beta amyloid peptide.
The purpose of this assay is to provide a higher volume method of assaying the amount of beta amyloid aggregation using an endpoint assay based on filtration. In this assay, hexafluoroisopropanol (HFIP) is used to break down the initial amyloid peptide to a monomer state and use a concentration of 33 μM which is high enough so that aggregation will occur at pH 6.0 in several hours.
β-Amyloid Peptide Aggregation, pH 6.0 (BAPA)
In a 96-well plate (Costar 3794), we add […] 50 mM Phosphate Buffer, pH 6.0, 10 μL 0.5 mg/mL AP (140) peptide in 20% HFIP+0.1 μL/assay radioiodinated ^125I Aβ(1-40) [^125I Aβ(1-40)], and 1 μL of the compound to be tested starting at 50 mM with a concentration of DMSO <1%. Then, we incubate for 2 to 4 hours at room temperature. We stop the reaction with […] of 50 mM phosphate buffer, pH 6.0, and filter it through a 0.2 μm 96-well filter plate (Millipore MAGU N22). We wash the filter plate with 100 μL of the same phosphate buffer. Aggregation was detected on a Microbeta counter after impregnating the filters with Meltilex (1450-441) and is corrected for background.

Aβ(1-42) = target: T3, Aβ(1-42) (Homo sapiens, UniProt P05067); test: BATYM Assay (Aβ(1-42) aggregation, Thioflavin T fluorescence); assay type: biochemical; settings: Aβ 1-42 final concentration 100 μM, PBS pH 7.4, 37° C., 1 day, ThT fluorescence
T3 construct: Required Aβ(1-42)(California Peptide) was dried from its hexafluoroisopropanol (HFIP) stock solution; purchased California Peptide
Description: Required Aβ(1-42)(California Peptide) was dried from its hexafluoroisopropanol (HFIP) stock solution. The Aβ(1-42) was dissolved in dimethylsulfoxide (DMSO) and then mixed with phosphate buffered saline, (PBS) (pH 7.4). The mixed Aβ(1-42) solution was filtered with a 0.2 μm Omnipore membrane syringe filter (Millipore, Bedford, Mass.). The compound to be tested in DMSO (50 times concentrate) was put into each well (0.5 μL/well) of a 96-well plate. The Aβ(1-42) solution was added into each well (24.5 μL/well). The plate was centrifuged at 1,000 g for 5 minutes and incubated at 37° C. for 1 day (Aβ 1-42; final concentration 100 μM).
After incubation Thioflavin T (ThT) (30 μM) solution in glycine-NaOH buffer (pH 8.5, 50 mM) was added into each well (250 μL/well), fluorescence was measured (ex. 440/20 nm; em 485/20 nm) using a fluorescence plate reader. The inhibitory activity was calculated as the reduction of fluorescence with the following formula:
inhibition (%)={(F(Aβ)−F(Aβ+compound)}/{F(Aβ)−F(solvent+compound)}×100
The IC50s were calculated by a curve fitting program using the following equation. The data were obtained from two different experiments in triplicate.
x=concentration of tested compound (M),

Aβ(1-40) [3] = target: T1, Aβ(1-40); test: BASST (Beta-Amyloid Self-Seeding, ThioflavinT), inhibitors of self-seeded amyloid fibril growth; assay type: biochemical; settings: 30 μM soluble Aβ(1-40), pH 7.5, 37° C., 3 to 5 hours, thioflavin T fluorescence
Description: BASST (Beta-Amyloid Self-Seeding, ThioflavinT)
as §1
Assay Buffer—50 mM sodium phosphate, pH 7.5, 100 mM NaCl, 0.02% NaN3, 1 M urea (filter and store at 4° C.).
Soluble Aβ(1-40)—2.2 mg/mL in deionized H2O (store in aliquots at −20° C., keep on ice when thawed) will self-seed after 1 week storage. Typically, the solution should be stored until no lag phase is seen in the assay.
Final assay conditions: 30 μM soluble Aβ(1-40) in deionized water in assay buffer. Compound to be tested is dissolved in DMSO, typically 5-50 mM stock, such that the final concentration of DMSO is <1% v/v in the assay.
Assay: Reaction mixture for 50 assays (on ice) comprised of 1 μL of soluble Aβ(1-40)+13.5 μL assay buffer per assay. The following are the amounts of the components of the reaction mixture that result in each of the 50 assay wells.
1) Prepare the reaction mix above by mixing the components and storing on ice.
2) Pipet […] of reaction mixture into each of 50 wells of a polystyrene U-bottom 96-well microtiter plate (Corning 25881-96) on ice.
as §2, with “[…]” for “μL”
4) Seal the plate with aluminum film and incubate for 10 minutes on ice.
5) Raise the temperature to 37° C. and incubate for 3 to 5 hours (depends on the lot of the peptide).
6) Remove the aluminum film and add 250 μL/well of 5 μM thioflavin T (ThT) [T-3516, Sigma-Aldrich] in 50 mM glycine-NaOH, pH 8.5. Read fluorescence on a plate reader (ex=440 nm/20 nm; em=485 nm/20 nm) within 5 minutes.

T3 sequence (P05067 672-713 limits assumed): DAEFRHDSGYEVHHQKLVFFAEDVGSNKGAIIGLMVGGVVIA
T2 sequence (P05067 672-711 limits assumed): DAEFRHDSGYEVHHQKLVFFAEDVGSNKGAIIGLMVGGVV
T1 sequence (P05067 672-711 limits assumed): as above

Row | melting point [°C] | IC50 (Aβ(1-40) [1]) | IC50 [2] [µM] | IC50 (Aβ(1-42)) [nM] | IC50 (Aβ(1-40) [3]) | Compound
1 | 198 to 200 | 7 µM | 38 | 1940 | 3000 nM | CCCCCCN(C)c1ccc(/C=C2\SC(=S)N(Cc3nnn[nH]3)C2=O)cc1 [Example 16, (Z) 5-[4-(Hexyl-methyl-amino)benzylidene]-3-(1H-tetrazol-5-ylmethyl)-2-thioxo-thiazolidin-4-one]
2 | 208 to 210 | 10 µM and 5 µM | 2 | 1870 | 1000 nM and 1500 nM | CCCCCN(CCCCC)c1ccc(/C=C2\SC(=S)N(Cc3nnn[nH]3)C2=O)cc1 [Example 17]
3 | 228 to 230 | 5 µM | 122 | 1880 | 600 nM | CCCCN(CCCC)c1ccc(/C=C2\SC(=S)N(CC(=O)NS(=O)(=O)C(F)(F)F)C2=O)cc1 [Example 18, (Z) N-{[5-(4-Dibutylamino-benzylidene)-4-oxo-2-thioxo-thiazolidin-3-yl]-acetyl}-C,C,C-trifluoro-methanesulfonamide]
4 | 112 to 115 | 5 µM | 129 | 1770 | 1100 nM | CCCCN(CCCC)c1ccc(/C=C2\SC(=S)N(CC(=O)NS(=O)(=O)c3ccccc3)C2=O)cc1 [Example 19, (Z) N-{[5-(4-Dibutylamino-benzytidene)-4-oxo-2-thioxo-thiazolidin-3-yl]-acetyl}-benzenesulfonamide]
5 | 121 to 123 | 3 µM | > 60 | 1990 | 1000 nM | CCCCCN(CCCCC)c1ccc(/C=C2\SC(=S)N(CC(=O)NS(=O)(=O)c3ccccc3)C2=O)cc1 [Example 22, (Z) N-{2-[5-(4-Dipentylamino-benzylidene)-4-oxo-2-thioxo-thiazolidin-3-yl]-acetyl}-benzenesulfonamide]
6 | 247 | > 100 µM | 30 | 3330 | 1000 nM and 500 nM | O=C1/C(=C/c2ccc(N3CC[C@@H]4CCCC[C@H]4C3)cc2)SC(=S)N1Cc1nnn[nH]1 [Example 23, (Z) 5-[(4aS,8aR)-4-(Octahydro-isoquinolin-2-yl)-benzylidene]-3-(1H-tetrazol-5-ylmethyl)-2-thioxo-thiazolidin-4-one]
7 | 130 to 132 | 7 µM | 93 | 2020 | 2000 nM | CCCCCN(CCCCC)c1ccc(/C=C2\SC(=S)N(CC(=O)NS(=O)(=O)c3ccc(F)cc3)C2=O)cc1 [Example 27, (Z) N-{2-[5-(4-Dipentylamino-benzylidene)-4-oxo-2-thioxo-thiazolidin-3-yl]-acetyl}-4-fluoro-benzenesulfonamide]
8 | 183 | 21 µM | 69 | 2190 | 300 nM | CCCCN(CCCC)c1ccc(/C=C2\SC(=S)N(CCS(=O)(=O)NC(=O)c3ccccc3)C2=O)cc1 [Example 28, (Z) 2-[5-(4-Dibutylamino-benzylidene)-4-oxo-2-thioxo-thiazolidin-3-yl]-ethanesulfonic acid benzoylamide]
9 | 213 | 11 µM | > 100 | 3420 | 600 nM | O=C(NS(=O)(=O)CCN1C(=O)/C(=C/c2ccc(N3CCC4CCCCC4C3)cc2)SC1=S)c1ccccc1 (stereo not shown) [Example 29, (Z) 2-{5-[4-(Octahydro-isoquinolin-2-yl)-benzylidene]-4-oxo-2-thioxo-thiazolidin-3-yl}-ethanesulfonic acid benzoylamide]
10 | 248 | > 100 µM | > 60 | 2260 | 300 nM | O=C(NS(=O)(=O)CCN1C(=O)/C(=C/c2ccc(N3CCC4CCCCC4C3)cc2)SC1=S)c1ccc(F)cc1 (stereo not shown) [Example 30, (Z) 2-{5-[4(Octahydro-isoquinolin-2-yl)benzylidene]-4-oxo-2′-thioxo-thiazolidin-3-yl}-ethanesulfonic acid 4-fluoro-benzoylamide]
11 | 195 to 196 | 9 µM | > 100 | 3110 | 300 nM | CCCCCN(CCCCC)c1ccc(/C=C2\SC(=S)N(CCS(=O)(=O)NC(=O)c3ccc(F)cc3)C2=O)cc1 [Example 31, (Z) 2-[5-(4-Dipentylamino-benzylidene)-4-oxo-2-thioxo-thiazolidin-3-yl]-ethanesulfonic acid 4-fluoro-benzoylamide]
